One data set deals with B16F10 melanoma cells. The data set is described as follows: In vitro anti-tumor experiment, growth inhibition of B16F10 cells. It counts as cell-based. As to conditions: Mus musculus, B16-F10; B16F10, 72 hours incubation. On the procedure:
(§1) Hepatoma HepG2 cells were cultured in a MEM culture medium (containing 10% fetal bovine serum, 25 mM HEPES and 0.1 mg/ml kanamycin) under conditions of 5% carbon dioxide at 37° C. HepG2 cells were harvested as single free cells by a tripsin/EDTA treatment in the logarithmic growth phase, and a cell suspension solution consisted of 2×10^4 cells per ml was prepared with MEM culture medium (containing 10% fetal bovine serum, 25 mM HEPES and 0.1 mg/ml kanamycin). The test compound was dissolved in DMSO, then diluted with RPMI1640 culture medium (containing 10% fetal bovine serum, 25 mM HEPES, 0.1 mg/ml kanamycin), and adjusted to a concentration of 2.0×10^−9 to 2.0×10^−3 M.
(§2) 0.1 ml of the cell suspension solution was put in each well of a 96-well plate, then cultured for 24 hours to make the cells adhere to the microplates, and 0.1 ml of the test compound was added in each well and incubated for 72 hours under conditions of 5% carbon dioxide at 37° C. The 50% growth inhibition concentration (GI50 value μM) was computed from the growth inhibition rates at various test sample concentrations, and the results are shown in Table 1.
(§3) When using cells other than HepG2 cells, the following culture media were used instead of the MEM culture medium, and the following single cell suspensions were prepared with the following media:
RPMI1640 culture medium containing 10% fetal bovine serum, 1×10^4 cell suspension

The subject of a further data set is Hepatoma HepG2 cells. The data set is described as follows: In vitro anti-tumor experiment, growth inhibition of HepG2 cells. As to conditions: Homo sapiens; HepG2, 72 hours incubation. In kind it is cell-based. The method, then: as §1, §2
For data set [1], the system named is PC-3 prostate cancer cells. The data set is described as follows: In vitro anti-tumor experiment, growth inhibition of PC-3 cells. The conditions noted are these: Homo sapiens; PC-3, 72 hours incubation. It counts as cell-based. The method, then:
as §1, §2, §3
PC-3 prostate cancer cells:
F12K culture medium containing 10% fetal bovine serum, 2×10^4 cell suspension

Usually melting point stands for the temperature, or range, at which the solid turns liquid. As a reminder, the GI50 is the concentration that inhibits growth by half. In turn, `C[C@@H]1CO[C@@H](C)CN1c1nc(N2CCOCC2)nc(-n2c(C(F)F)nc3ccccc32)n1` (relative stereo) [Compound 3, 2-(2-difluoromethylbenzimidazol-1-yl)-4-(trans-2,5-dimethylmorpholino)-6-morpholino-1,3,5-triazine] returned a melting point of 166 to 169 °C. This compound also registered a GI50 in the data set with B16F10 melanoma cells of 1.14 µM. The compound further yielded a GI50 with Hepatoma HepG2 cells of 1.12 µM. In data set [1], this compound had a GI50 of 0.49 µM.

Regarding `CC1(C)CN(c2nc(N3CCOCC3)nc(-n3c(C(F)F)nc4c(Cl)cc(N)cc43)n2)CCO1` [Compound 12, 2-(6-amino-4-chloro-2-difluoromethylbenzimidazol-1-yl)-4-(2,2-dimethylmorpholino)-6-morpholino-1,3,5-triazine], the melting point was 238 °C (dec.). In the data set on B16F10 melanoma cells, this compound displayed a GI50 of 0.27 µM. In the data set on Hepatoma HepG2 cells, this compound had a GI50 of 0.26 µM. For the same compound, it took 0.1 µM to inhibit growth in data set [1] by half (GI50).

The compound `CC1(C)CN(c2nc(N3CCOCC3)nc(-n3c(C(F)F)nc4ccccc43)n2)CCO1` [Compound 2, 2-(2-difluoromethylbenzimidazol-1-yl)-4-(2,2-dimethylmorpholino)-6-morpholino-1,3,5-triazine] displayed a melting point of 176 to 178 °C. Growth with B16F10 melanoma cells was halved (GI50) at 0.95 µM. The GI50 with Hepatoma HepG2 cells is 1.5 µM. In data set [1], it took 0.74 µM to inhibit growth by half (GI50).

The record behind these values is US20070244110A1, “Treatment of prostate cancer, melanoma or hepatic cancer” (ZENYAKU KOGYO KABUSHIKI KAISHA, priority 2006, published 2007).
